Data reported in patent US20060199856A1, “Novel compounds as anti-inflammatory, immunomodulatory and anti-proliferatory agents” (4 SC AG, priority 2001, published 2006).
Where two headings read alike, the source gives them in different places.

Key:
Format in all cases: biochemical
[1] = biological target: T1, recombinant murine DHODH (Mus musculus, UniProt O35435); experiment: Inhibition assay of DHODH activity (murine enzyme); details: numeric values or words
T1 construct: provided by Prof; M. Löffler, Marburg, Germany (gift, not purchased)
T1 sequence (O35435 whole entry): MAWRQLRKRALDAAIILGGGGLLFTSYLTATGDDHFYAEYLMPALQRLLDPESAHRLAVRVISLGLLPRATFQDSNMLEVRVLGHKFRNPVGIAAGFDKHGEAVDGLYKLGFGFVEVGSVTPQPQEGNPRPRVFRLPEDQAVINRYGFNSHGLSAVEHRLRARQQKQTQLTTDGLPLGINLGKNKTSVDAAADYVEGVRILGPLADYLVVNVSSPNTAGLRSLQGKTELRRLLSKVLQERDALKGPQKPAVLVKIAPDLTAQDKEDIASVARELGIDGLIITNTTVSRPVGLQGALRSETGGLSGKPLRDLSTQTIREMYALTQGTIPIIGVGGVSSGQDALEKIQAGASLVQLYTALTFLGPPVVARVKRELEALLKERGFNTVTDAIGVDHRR
Method: (§1) The standard assay mixture contained 50 μM decyclo ubichinone, 100 μM dihydroorotate, 60 μM 2,6-dichloroindophenol, as well as 20 mU DHODH. The volume activity of the recombinant enzyme used was 30 U/ml. Measurements were conducted in 50 mM TrisHCl (150 mM KCl, 0,1% Triton X-100, pH. 8,0) at 30° C. in a final volume of 1 ml. The components were mixed, and the reaction was started by adding dihydroorotate. The course of reaction was followed by spectrophotometrically measuring the decrease in absorption at 600 nm for 2 min.
(§2) Inhibitory studies were conducted in a standard assay with additional variable amounts of inhibitor.
(§3) These investigations were carried out with recombinant human as well as with recombinant murine DHODH provided by Prof. M. Löffler, Marburg, Germany [M. Löffler, Chem. Biol. Interact.

[2] = biological target: T2, recombinant human DHODH (Homo sapiens, UniProt Q02127); experiment: Inhibition assay of DHODH activity (human enzyme)
T2 construct: provided by Prof; M. Löffler, Marburg, Germany (gift, not purchased)
T2 sequence (Q02127 whole entry): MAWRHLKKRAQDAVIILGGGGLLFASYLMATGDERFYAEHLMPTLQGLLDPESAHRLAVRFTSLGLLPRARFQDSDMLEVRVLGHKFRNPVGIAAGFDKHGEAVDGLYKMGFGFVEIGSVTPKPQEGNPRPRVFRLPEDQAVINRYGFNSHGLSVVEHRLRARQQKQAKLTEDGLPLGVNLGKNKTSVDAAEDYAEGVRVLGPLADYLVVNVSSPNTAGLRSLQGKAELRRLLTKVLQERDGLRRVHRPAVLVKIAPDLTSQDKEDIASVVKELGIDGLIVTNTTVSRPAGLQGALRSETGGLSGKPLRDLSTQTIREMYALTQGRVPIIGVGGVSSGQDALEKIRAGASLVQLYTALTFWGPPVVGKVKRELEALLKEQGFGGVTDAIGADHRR
Method: as §1, §2, §3

[3] = biological target: DHODH (Rattus norvegicus, UniProt Q63707); experiment: Inhibition assay of DHODH activity (rat enzyme, head printed 'rate')
Chain of DHODH (Q63707 whole entry): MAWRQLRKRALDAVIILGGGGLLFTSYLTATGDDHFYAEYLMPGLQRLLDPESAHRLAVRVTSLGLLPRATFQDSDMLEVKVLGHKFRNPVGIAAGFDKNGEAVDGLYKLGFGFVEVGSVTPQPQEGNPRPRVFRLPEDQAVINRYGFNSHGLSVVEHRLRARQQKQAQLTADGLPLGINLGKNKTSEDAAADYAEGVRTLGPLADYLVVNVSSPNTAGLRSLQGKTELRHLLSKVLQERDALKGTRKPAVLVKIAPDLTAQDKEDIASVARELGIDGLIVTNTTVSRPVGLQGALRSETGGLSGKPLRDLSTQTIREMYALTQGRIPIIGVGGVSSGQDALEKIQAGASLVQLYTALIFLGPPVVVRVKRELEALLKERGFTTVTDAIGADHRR
Method: as §1, §2

[4] = recombinant human DHODH, numeric values, read-out: human IC50-Value
[5] = class symbols (in nM), read-out: rate IC50-Value
[6] = recombinant human DHODH, class symbols (in nM), read-out: human IC50-Value

Row | Compound | IC50 [2, 6] | further results
1 | O=C(O)C1=C(C(=O)Nc2ccc(OCc3ccccc3)cc2)CCC1 [Compound 01, 2-(4-Benzyloxy-phenylcarbamoyl)-cyclopent-l-enecarboxylic acid] | – | IC50 [1]: 8.2 µM; IC50 [2, 4]: 350 nM
2 | O=C(O)C1=C(C(=O)Nc2cc(C(F)(F)F)cc(C(F)(F)F)c2)CCC1 [Compound 03] | – | IC50 [2, 4]: 1000 nM
3 | COc1ccc(Nc2ccc(NC(=O)C3=C(C(=O)O)CCC3)cc2)cc1 [Compound 04] | – | murine IC50-Value [1]: weakly active; IC50 [2, 4]: 1000 nM
4 | O=C(O)C1=C(C(=O)Nc2c(F)c(F)cc(F)c2F)CCC1 [Compound 06] | – | IC50 [2, 4]: 1300 nM
5 | O=C(O)C1=C(C(=O)Nc2c(F)c(F)c(C(F)(F)F)c(F)c2F)CCC1 [Compound 07] | – | IC50 [2, 4]: 1600 nM
6 | O=C(O)C1=C(C(=O)Nc2ccc(F)c(F)c2F)CCC1 [Compound 10] | – | IC50 [2, 4]: 6800 nM
7 | Nc1ccc(Oc2ccc(NC(=O)C3=C(C(=O)O)CCCC3)cc2)cc1 [Compound 11] | – | IC50 [2, 4]: 7000 nM
8 | O=C(O)C1=C(C(=O)Nc2ccc(-c3ccccc3F)cc2)CCC1 [Compound 13] | < 800 nM | IC50 [3, 5]: > 1500 nM
9 | O=C(O)C1=C(C(=O)Nc2ccc(-c3ccccc3Cl)cc2)CCC1 [Compound 14] | < 800 nM | IC50 [3, 5]: > 1500 nM
10 | COc1ccccc1-c1ccc(NC(=O)C2=C(C(=O)O)CCC2)cc1 [Compound 15] | < 800 nM | –
11 | O=C(O)C1=C(C(=O)Nc2ccc(OCc3c(F)cccc3F)cc2)CCC1 [Compound 16] | < 800 nM | –
12 | CCOc1ccccc1-c1ccc(NC(=O)C2=C(C(=O)O)CCC2)c(F)c1 [Compound 17] | < 800 nM | –
13 | N#Cc1cccc(-c2ccc(NC(=O)C3=C(C(=O)O)CCC3)cc2Cl)c1 [Compound 18] | < 800 nM | –
14 | COc1ccc(-c2ccc(NC(=O)C3=C(C(=O)O)CCC3)cc2Cl)cc1 [Compound 19] | < 800 nM | IC50 [3, 5]: < 800 nM
15 | CS(=O)(=O)c1ccc(-c2ccc(NC(=O)C3=C(C(=O)O)CCC3)cc2Cl)cc1 [Compound 20] | 800 to 1500 nM | –
16 | N#Cc1ccc(-c2ccc(NC(=O)C3=C(C(=O)O)CCC3)cc2Cl)cc1 [Compound 21] | 800 to 1500 nM | –
17 | COc1ccc(-c2ccc(NC(=O)C3=C(C(=O)O)CCC3)cc2Cl)cn1 [Compound 22] | < 800 nM | –
18 | COc1ccc(-c2ccc(NC(=O)C3=C(C(=O)O)CCC3)cc2C)cc1 [Compound 23] | < 800 nM | –
19 | O=C(O)C1=C(C(=O)Nc2cc(Br)c(OCc3cc(F)ccc3F)c(Br)c2)CCC1 [Compound 24] | < 800 nM | IC50 [3, 5]: > 1500 nM
20 | COc1cccc(-c2ccc(NC(=O)C3=C(C(=O)O)CCC3)c(F)c2)c1 [Compound 26] | – | IC50 [3]: > 1500 nM
21 | O=C(O)C1=C(C(=O)Nc2ccc(-c3cccc(F)c3)cc2F)CCC1 [Compound 27] | < 800 nM | –
22 | O=C(O)C1=C(C(=O)Nc2ccc(-c3cccnc3)c(Cl)c2)CCC1 [Compound 28] | 800 to 1500 nM | –

Row | Compound | IC50 [2, 6] | further results
23 | O=C(O)C1=C(C(=O)Nc2cc(Br)c(OCc3ccccc3)c(Br)c2)CSC1 [Compound 29] | – | IC50 [3]: 800 to 1500 nM; IC50 [2]: < 800 nM
24 | Cc1cc(-c2cc(F)c(NC(=O)C3=C(C(=O)O)CCC3)c(F)c2)ccc1F [Compound 30] | < 800 nM | –
25 | COc1ccccc1-c1ccc(NC(=O)C2=C(C(=O)O)CCC2)c([N+](=O)[O-])c1 [Compound 32] | < 800 nM | –
26 | COc1cc(-c2ccccc2)ccc1NC(=O)C1=C(C(=O)O)CCC1 [Compound 33] | < 800 nM | –
27 | COc1cc(-c2ccccc2Cl)ccc1NC(=O)C1=C(C(=O)O)CCC1 [Compound 34] | < 800 nM | –
28 | COc1cc(-c2cccc(OC(F)(F)F)c2)ccc1NC(=O)C1=C(C(=O)O)CCC1 [Compound 35] | < 800 nM | –
29 | COc1cc(-c2ccccc2F)ccc1NC(=O)C1=C(C(=O)O)CCC1 [Compound 36] | < 800 nM | –
30 | COc1ccc(-c2ccc(NC(=O)C3=C(C(=O)O)CCC3)c(OC)c2)c(OC)c1 [Compound 37] | < 800 nM | –
31 | CCOc1cccc(-c2ccc(NC(=O)C3=C(C(=O)O)CCC3)c(OC)c2)c1 [Compound 38] | < 800 nM | –
32 | COc1cccc(-c2ccc(NC(=O)C3=C(C(=O)O)CCC3)c(OC)c2)c1 [Compound 39] | < 800 nM | –
33 | O=C(O)C1=C(C(=O)Nc2ccc(-c3ccccc3Cl)cc2)CSC1 [Compound 41] | < 800 nM | IC50 [3, 5]: > 1500 nM
34 | Cc1cccc(Sc2ccc(NC(=O)C3=C(C(=O)O)CCC3)cc2)c1 [Compound 42] | < 800 nM | IC50 [3, 5]: < 800 nM
35 | O=C(O)C1=C(C(=O)Nc2ccc(-c3cccc(OC(F)(F)F)c3)cc2)CCC1 [Compound 43] | < 800 nM | –
36 | O=C(O)C1=C(C(=O)Nc2ccc(-c3cc4ccccc4s3)cc2)CCC1 [Compound 44] | < 800 nM | –
37 | O=C(O)C1=C(C(=O)Nc2ccc(-c3cc4ccccc4s3)cc2F)CCC1 [Compound 45] | < 800 nM | –
38 | CCOc1cccc(-c2ccc(NC(=O)C3=C(C(=O)O)CCC3)c(F)c2)c1 [Compound 46] | < 800 nM | IC50 [3, 5]: > 1500 nM
39 | COc1cc(-c2ccc(NC(=O)C3=C(C(=O)O)CCC3)c(OC)c2)ccc1NC(=O)C1=C(C(=O)O)CCC1 [Compound 48] | > 1500 nM | –
40 | O=C(O)C1=C(C(=O)Nc2ccc(-c3ccccc3)cc2)CS(=O)(=O)C1 [Compound 49] | > 1500 nM | –
41 | O=C(O)C1=C(C(=O)Nc2ccc(Oc3ccccc3)cc2)CCC1 [Compound 50] | < 800 nM | IC50 [3, 5]: < 800 nM
42 | O=C(O)C1=C(C(=O)Nc2ccc(Oc3ccccc3)cc2)COC1 [Compound 51] | > 1500 nM | –
43 | COc1ccccc1-c1ccc(NC(=O)C2=C(C(=O)O)CCC2)c(Cl)c1 [Compound 53] | < 800 nM | IC50 [3, 5]: 800 to 1500 nM
44 | COc1ccccc1-c1ccc(NC(=O)C2=C(C(=O)O)CCC2)cc1Cl [Compound 54] | < 800 nM | IC50 [3, 5]: < 800 nM

Row | Compound | IC50 [2, 6] | further results
45 | COc1ccccc1-c1ccc(NC(=O)C2=C(C(=O)O)CCC2)c(C(F)(F)F)c1 [Compound 55] | > 1500 nM | –
46 | COc1ccccc1-c1c(F)c(F)c(NC(=O)C2=C(C(=O)O)CCC2)c(F)c1F [Compound 56] | – | IC50 [3]: < 800 nM; IC50 [2]: < 800 nM
47 | COc1ccccc1-c1ccc(NC(=O)C2=C(C(=O)O)CCC2)c(C)c1 [Compound 57] | < 800 nM | IC50 [3, 5]: 800 to 1500 nM
48 | COc1ccccc1-c1cc(Cl)c(NC(=O)C2=C(C(=O)O)CCC2)c(Cl)c1 [Compound 58] | < 800 nM | IC50 [3, 5]: 800 to 1500 nM
49 | COc1ccc(Oc2ccc(C(F)(F)F)cc2NC(=O)C2=C(C(=O)O)CCC2)cc1 [Compound 59] | > 1500 nM | –
50 | O=C(O)C1=C(C(=O)Nc2ccc(Oc3ccc(F)cc3F)cc2)CCC1 [Compound 60] | 800 to 1500 nM | –
51 | O=C(O)C1=C(C(=O)Nc2ccc(Oc3ccc(Cl)cc3)cc2)CCC1 [Compound 61] | > 1500 nM | –
52 | CCOc1ccccc1-c1cc(F)c(NC(=O)C2=C(C(=O)O)CCC2)c(F)c1 [Compound 62] | < 800 nM | IC50 [3, 5]: < 800 nM
53 | CCOc1cccc(-c2cc(F)c(NC(=O)C3=C(C(=O)O)CCC3)c(F)c2)c1 [Compound 63] | < 800 nM | IC50 [3, 5]: < 800 nM
54 | O=C(O)C1=C(C(=O)Nc2c(F)cc(-c3cccc(OC(F)(F)F)c3)cc2F)CCC1 [Compound 64] | < 800 nM | –
55 | O=C(O)C1=C(C(=O)Nc2c(F)cc(-c3ccccc3Cl)cc2F)CCC1 [Compound 65] | < 800 nM | –
56 | O=C(O)C1=C(C(=O)Nc2c(F)cc(-c3ccccc3F)cc2F)CCC1 [Compound 66] | < 800 nM | –
57 | COc1ccc(-c2cc(F)c(NC(=O)C3=C(C(=O)O)CCC3)c(F)c2)c(OC)c1 [Compound 67] | < 800 nM | –
58 | O=C(O)C1=C(C(=O)Nc2ccc(OCc3ccccc3C(F)(F)F)c(Cl)c2)CCC1 [Compound 68] | < 800 nM | IC50 [3, 5]: > 1500 nM
59 | O=C(O)C1=C(C(=O)NCCCCc2ccccc2)CCC1 [Compound 70] | > 1500 nM | –
60 | O=C(O)C1=C(C(=O)NC2CC2c2ccccc2)CCC1 (centres unmarked) [Compound 71] | > 1500 nM | –
61 | O=C(O)C1=C(C(=O)Nc2ccc(OCc3ccccc3)c(Cl)c2)CCC1 [Compound 72] | < 800 nM | –
62 | CN(C(=O)C1=C(C(=O)O)CCC1)c1ccc(-c2ccccc2)cc1 [Compound 73] | > 1500 nM | –
63 | O=C(O)C1=C(C(=O)Nc2ccc(OCc3ccccc3F)c(Cl)c2)CCC1 [Compound 74] | < 800 nM | –
64 | O=C(O)C1=C(C(=O)Oc2ccc(-c3ccccc3)cc2)CCC1 [Compound 75] | > 1500 nM | –
